From PubChem BioAssay AID1408 (University of Pittsburgh Molecular Library Screening Center, 2008)

target: Serine/threonine-protein kinase D1 (Homo sapiens) (UniProt Q15139); assay: inhibition potency against human PKD1 – biochemical, fluorescence polarization, dose response (AID 1408); conditions: not given
Sequence (Q15139 whole entry, looked up): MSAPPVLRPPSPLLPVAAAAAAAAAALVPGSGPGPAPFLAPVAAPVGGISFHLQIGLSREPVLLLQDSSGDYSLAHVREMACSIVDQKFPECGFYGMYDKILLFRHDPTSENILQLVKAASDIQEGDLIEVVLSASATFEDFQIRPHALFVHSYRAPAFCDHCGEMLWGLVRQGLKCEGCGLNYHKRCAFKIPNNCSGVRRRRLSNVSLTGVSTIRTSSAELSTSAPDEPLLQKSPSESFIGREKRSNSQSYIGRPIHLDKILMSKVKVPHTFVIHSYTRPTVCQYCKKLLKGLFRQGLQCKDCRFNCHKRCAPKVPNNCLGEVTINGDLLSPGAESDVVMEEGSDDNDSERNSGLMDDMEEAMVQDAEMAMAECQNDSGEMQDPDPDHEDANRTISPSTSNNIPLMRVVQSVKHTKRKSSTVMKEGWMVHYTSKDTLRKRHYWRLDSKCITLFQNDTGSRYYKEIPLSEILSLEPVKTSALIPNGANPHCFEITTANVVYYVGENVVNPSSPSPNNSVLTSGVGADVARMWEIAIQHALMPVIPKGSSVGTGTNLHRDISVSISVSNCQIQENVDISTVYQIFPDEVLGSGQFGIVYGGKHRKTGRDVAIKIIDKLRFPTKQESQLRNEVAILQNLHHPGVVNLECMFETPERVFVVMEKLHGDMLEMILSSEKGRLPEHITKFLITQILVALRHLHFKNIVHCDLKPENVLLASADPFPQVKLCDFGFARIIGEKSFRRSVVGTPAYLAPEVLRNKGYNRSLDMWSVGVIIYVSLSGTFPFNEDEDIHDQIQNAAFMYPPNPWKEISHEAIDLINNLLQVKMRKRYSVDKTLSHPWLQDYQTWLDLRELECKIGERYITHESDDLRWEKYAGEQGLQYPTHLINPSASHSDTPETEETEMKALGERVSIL

| Structure (SMILES) | IC50 [µM] |
| --- | --- |
| Clc1cncc(Cl)c1N/N=C/c1ccncc1 | 9.61 |
| C/C(=N\Nc1ncc(Cl)cc1Cl)c1ccccn1 | 9.31 |

same assay, conditions: inhibition, at 50 µM, stronger effect = higher value

| Structure (SMILES) | inhibition [%] |
| --- | --- |
| CCC1=NNc2cccc3c(OC)ccc1c23 | 67 |
| Nc1nc2ccc([N+](=O)[O-])c(N)c2s1 | 95.9 |
| CCC(=O)Nc1c2c(nn1-c1ccccc1C)CSC2 | -1.23 |
| Cc1cc(NCCCN)nc(-c2ccccc2O)n1 | 94.4 |
| Cc1c(C#N)c(N)nc(Cl)c1C#N | 5.41 |
| CCOC(=O)c1sc(=NC(=O)CCS(=O)(=O)c2ccccc2)n(C)c1C | -2.41 |
| CSc1ccccc1C(=O)NCc1ccc(F)cc1 | 1.94 |
| O=C1CSCN1c1cc(Cl)ccc1Cl | 1.32 |
| O=C(CSc1ccc2nnc(-c3cccnc3)n2n1)c1ccccc1 | -0.442 |
| Cn1cccc1C(=O)NC(=O)COC(=O)c1cc(S(=O)(=O)N2CCCCC2)ccc1Cl | -3.91 |
| COc1ccc(Cn2c(=O)[nH]c3cc(C(=O)NC4CCCC4)ccc3c2=O)cc1 | 14.8 |
| O=[N+]([O-])c1ccc(Nc2c3ccccc3nc3ccccc23)cc1 | -1.2 |
| O=C(Nc1ccccc1C(=O)N1CCCC1)C1COc2ccccc2O1 (stereo unspecified) | 1.87 |
| Clc1cncc(Cl)c1N/N=C/c1ccncc1 | 83.8 |
| O=C(O)c1cc(C(=O)C2CCCCC2)c[nH]1 | 3.08 |
| CCCc1cc(=O)[nH]c(SCCCCN2C(=O)c3ccccc3C2=O)n1 | 0.534 |
| CC(=O)Oc1cc(OC(C)=O)c2c(C)cc(=O)oc2c1 | 29 |
| O=C(NNC1=Nc2cccc3cccc1c23)c1ccc(Br)cc1 | -3.67 |
| NC(N)=NC(=O)c1nc(Cl)c(N)nc1N | 96.6 |
| NC(=O)c1cn(C2OC(CO)C(O)C2O)c2ncnc(N)c12 (stereo unspecified) | 102 |
| O=C(CSc1ccncc1)Nc1ccc2ccccc2c1 | -4.61 |
| CC1Cc2ccccc2N1c1ncnc(N)c1[N+](=O)[O-] (stereo unspecified) | 76.8 |
| C/C(=N\Nc1ncc(Cl)cc1Cl)c1ccccn1 | 65.6 |
| COC(=O)c1c(NC(=O)C2C3CCC(C3)C2C(=O)O)sc2c1CCCCC2 (stereo unspecified) | 7.89 |
| COc1ccc(CNC(=O)C2Cc3ccccc3CN2C(=O)c2ccco2)cc1 (stereo unspecified) | 9.09 |
| CS(=O)(=O)N1CCN(c2ccccc2NC(=O)c2ccc(Br)o2)CC1 | 15.2 |
| O=C(Nc1ccc(CN2CCOCC2)cc1)c1ccc(-c2cccc(Cl)c2)o1 | 96.2 |
| O=C1NCCCc2c1oc1ccc(O)cc21 | 101 |
| Cc1cc(NC(=O)CCC(=O)N(Cc2ccco2)C(C(=O)NCC2CCCO2)c2ccncc2)no1 (stereo unspecified) | -0.875 |
